Measured values reported in US6433012B1, “Method for inhibiting inflammatory disease” (Large Scale Biology Corp., priority 1998, dated 2002).
Marks after values point to notes of the source that are not given here.

Assays:
[1] = tested on: angiogenesis induced by hFGF-B in the chick chorioallantoic membrane (CAM); assay: Chick chorioallantoic membrane (CAM) assay, 14C-proline incorporation into collagenous protein; type: in vivo; design: inhibition of hFGF-B-induced angiogenesis: dose or concentration left out as unconfirmed
Text: This example illustrates the anti-angiogenic properties of methyl-3,5-diiodo-4-(4′-methoxyphenoxy)benzoate in the chick chorioallantoic membrane assay (CAM). The endpoint of the CAM assay was a quantitative determination of basement membrane biosynthesis by measuring the incorporation of ^14C-proline into Type IV collagenous protein.
The CAM assay involves the development of live chick embryos in Petri dishes under special sterile conditions. Therefore, only limited numbers of embryos can be used for evaluation of compounds in a single experiment. For this reason, two separate assays were conducted to test the three Biosource compounds at three concentrations per compound. In this assay, a known angiogenesis inhibitor, 2-methoxyestradiol (2-ME), was used as the positive control, and human fibroblast growth factor (hFGF) was used to induce angiogenesis in the CAM.
For testing, a minimum amount of acetone-methanol (1:1) was added to the test compounds for sterilization. The acetone-methanol mixture was then evaporated to dryness in a sterile hood. The compounds were dissolved dimethyl sulfoxide (DMSO) first and then diluted with saline containing methylcellulose. The final concentrations were 2% DMSO and 0.5% methylcellulose. All test solutions were added to each CAM in […].
Fresh fertile eggs were incubated for three days in a standard egg incubator. On Day 3, eggs were cracked under sterile conditions and embryos were placed in 20×100 mm plastic Petri dishes and cultivated at 37° C. in an embryo incubator with a water reservoir on the bottom shelf. Air was continuously bubbled into the water reservoir by using a small pump so that the humidity in the incubator was kept constant. Observations were made daily to ensure that all embryos were healthy. Dead or unhealthy embryos were removed from the incubator immediately to avoid contamination. On Day 9, a sterile silicone ring cup was placed on each CAM and […] of ^14C-proline with or without the test compound plus 2.5 ng of hFGF dissolved in saline containing 0.5% methylcellulose was delivered into each ring cup in a sterile hood. 2-ME was tested in parallel to serve as a reference compound. After addition of test materials, the embryos were returned to the incubator and cultivation continued. On Day 12, all embryos were transferred to a cold room at 4-10° C. The antiangiogenic effect of each test compound was determined by using the collagenase assay (Maragoudakis, et al., J. Pharm. Exp. Ther. 251:679-682 (1989)) to measure ^14C-proline incorporation into collagenous protein.
With the embryos placed on ice, a piece of CAM 10 mm in diameter was cut off under each ring cup and placed in a separate tube. To each tube was added 1.0 mL of phosphate-buffered saline (PBS, pH 7.3) containing 0.11 mg cycloheximide and 0.17 mg dipyridyl. The tubes were placed in a boiling water bath for 10 min and then cooled to room temperature. The PBS in each tube was discarded after centrifugation at 3000× g for 10 min. The CAM residue was washed once with 3 mL of 15% TCA and then three times with 3 mL of 5% TCA. Centrifugation was carried out as described above between each washing. At this point all non-protein bound radioactivity was removed, and the CAM containing the newly synthesized ^14C-collagenous protein was suspended in 0.9 mL of 0.1 N NaOH and 1.1 mL of HEPES buffer at pH 7.4. The pH of the sample was neutralized with 0.8 N HCl, using phenol red as indicator.
To digest the ^14C-collagenous protein, 7.5 units of collagenase and 500 nmol of calcium chloride in […] of HEPES buffer was added to the above samples, and mixtures were incubated at 37° C. for 4 h. The reaction was stopped by adding 1.0 mL of 20% TCA containing 5 mg of tannic acid into each tube. After vortex mixing, the samples were centrifuged at 3000× g for 10 min. […]

[2] = tested on: MCF-7 human breast carcinoma cells; assay: Chromosome condensation / prometaphase arrest; type: cell-based; conditions: 1 μM for 24 h
[3] = tested on: TNF-α mRNA in murine macrophage PU5-1.8 cell line; assay: TNF-α mRNA in LPS-stimulated macrophages (Northern blot); type: cell-based
Procedure: The murine macrophage PU5-1.8 cell line was purchased from the American Type Culture Collection (ATCC, Rockville, Md.). Cells were grown in DMEM medium supplemented with […], 0.1 mM nonessential amino acids, 2 mM glutamine and 5% fetal bovine serum (Life Technologies, Staten Island, N.Y.). Cells were maintained in a humidified atmosphere of 5% CO2-95% air at 37° C. Cells were passages twice weekly by firmly tapping the side of the flask to dislodge the adherent cells. Both nonadherent and adherent cells were passages. Exponentially growing cells were seeded at 5×10 ^5/mL, 4mL per 60-mm dish 24 h prior to the experiment. Test compounds were delivered in 1 mL volumes of the medium added to each dish at the start of the experiment. All dishes were incubated at 37° C. in 5% CO2-95% air for 3 h.
Total RNA was isolated by the guanidinium-cesium chloride method as described in N. S. Waleh, J. Gallo, T. D. Grant, B. J. Murphy, R. H. Kramer and R. M. Sutherland. (1994) “Selective downregulation of integrin receptors in spheroids of squamous cell carcinoma” Cancer Res., 54:838-843. Five to 10 μg of total RNA was electrophoresed in 1% agarose gels containing 6% formaldehyde. Following electrophoresis, gels were stained with ethidium bromide to visualize the positions of 28S and 18S RNA. The RNAs were then transferred to nylon membranes (Amersham Hybond N) by capillary blotting and fixed to the filter by exposure to UV light. The blots were probed with ^32P-labeled cDNA sequences of human TNF-α obtained from the American Type Culture Collection (ATCC). The TNF-α cDNA was a 1.1 kb PstI fragment of plasmid pE4 in E. coli MM294 (ATCC 39894). Hybridizations were carried out at 42° C. in 50% formamide, 5×SSC, 5×Denhardt's solution, 0.1% SDS, and 0.3 mg/mL salmon sperm DNA. Filters were washed by 1×SSC, 0.1% SDS, twice at room temperature for 15 min and once at 55° C. in 0.1×SSC, 0.1% SDS for 1 hr. Filters were exposed to X-ray film at −70° C. using an intensifying screen (Coronex Hi-Plus).
Hybridized bands were quantified by analyzing the images obtained by using a video densitometer (Applied Imaging Corporation, Santa Clara, Calif.). Film densities were calibrated using an optical-density wedge.

[4] = tested on: purified tubulin; conditions: as a function of colchicine or vinblastine concentration
Text: Tubulin-binding antimitotic drugs interact with the protein at diverse sites.

[5] = Table 1 experiment, dose 8.3 μg/CAM
[6] = Table 1 experiment, dose 25 μg/CAM
[7] = Table 1 experiment, dose 75 μg/CAM
[8] = Table 2 experiment, dose 8.3 μg/CAM
[9] = Table 2 experiment, dose 25 μg/CAM
[10] = Table 2 experiment, dose 75 μg/CAM

COc1cc2c(cc1O)CC[C@@H]1[C@@H]2CC[C@]2(C)[C@@H](O)CC[C@@H]12 [2-Methoxyestradiol, 2-methoxyestradiol, reference compound]
inhibition of hFGF-B-induced angiogenesis [1]: 38% | % Inhibition [1, 5]: 9% | ^14C-Proline Incorporated into Collagenous Protein (mean ± S.E.) [1, 5]: 5711 ± 1469 cpm/mg-protien | % Inhibition [1, 6]: 20% | ^14C-Proline Incorporated into Collagenous Protein (mean ± S.E.) [1, 6]: 5068 ± 1609 cpm/mg-protien | % Inhibition [1, 7]: 38% | ^14C-Proline Incorporated into Collagenous Protein (mean ± S.E.) [1, 7]: 3875 ± 891 cpm/mg-protien | % Inhibition [1, 8]: 6% | ^14C-Proline Incorporated into Collagenous Protein (mean ± S.E.) [1, 8]: 10499 ± 1372 cpm/mg-protien | % Inhibition [1, 9]: 35% | ^14C-Proline Incorporated into Collagenous Protein (mean ± S.E.) [1, 9]: 7303 ± 1424 cpm/mg-protien | % Inhibition [1, 10]: 38% | ^14C-Proline Incorporated into Collagenous Protein (mean ± S.E.) [1, 10]: 6984 ± 1022^b cpm/mg-protien

COc1cc2c(c(OC)c1OC)-c1ccc(OC)c(=O)cc1[C@@H](NC(C)=O)CC2 [colchicine, reference compound]
chromosome condensation (prometaphase arrest) [2]: produced identical chromosome condensation patterns | inhibition of TNF-α mRNA accumulation ([3]; 10 μM added to LPS (100 ng/mL) treated cultures, 3 h): 68% | effect on TNF-α mRNA expression, compound only ([3]; 10 μM, without LPS, 3 h): no effect | total RNA integrity ([3]; cells treated with different concentrations): intact

CC[C@]1(O)C[C@@H]2CN(CCc3c([nH]c4ccccc34)[C@@](C(=O)OC)(c3cc4c(cc3OC)N(C)[C@H]3[C@@](O)(C(=O)OC)[C@H](OC(C)=O)[C@]5(CC)C=CCN6CC[C@]43[C@@H]65)C2)C1 [vinblastine]
effect of competitor on binding of 14C-labeled BTO-956 to tubulin [4]: had no effect
